Laboratory results from patent US20090162495A1, “Derivatives of Di-Carbonyl Aromachemicals” (FLEXITRAL INC, priority 2005, published 2009).

How the values were obtained:
[1] = vapor pressure of the adduct; type: physicochemical; conditions: resulting in little or no odor
From the text: (§1) Diacetyl is known to form an adduct with sodium hydrogen sulfite [2-butanesulfonic acid, 2-hydroxy-3-oxo-, monosodium salt—CAS 13489-36-6]. See also French patent 2,845,903. This adduct is in equilibrium with the starting materials and, in practice, releases small amounts of diacetyl and sulfite continuously. The above-mentioned French patent discloses that the adduct is useful in hair care products as a straightening agent. The vapor pressure of the diacetyl adduct is negligible, thereby resulting in little or no odor. It is usually obtained and used in the form of a water-soluble salt, such as, e.g., an alkali metal (sodium) salt. Since it is water soluble, it can therefore be sprayed directly onto foodstuffs safely. The flavor imparted by the adduct is dominated by diacetyl, since at low concentrations, the sulfite taste and flavor is imperceptible.

[2] = water solubility of the adduct; type: physicochemical; conditions: water-soluble salt, e.g. alkali metal (sodium) salt
From the text: as §1

- vapor pressure [1]: negligible
- water solubility [2]: water soluble
Compound: CC(=O)C(C)(O)S(=O)(=O)[O-].[Na+] (centres unmarked) [diacetyl adduct, 2-butanesulfonic acid, 2-hydroxy-3-oxo-, monosodium salt]
